Source: patent US8022206B2 (OSI Pharmaceuticals, LLC, priority 2008, dated 2011)

What was measured:
MET (human) = MET (human) (Homo sapiens, UniProt P08581); assay: MET (human) AlphaScreen kinase assay, Km of ATP; format: biochemical; conditions: AlphaScreen, Km of ATP; read-out: Met biochemical IC50
Procedure, shortened: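 Human MET at lot-optimised concentration in 50 mM Tris pH 7.4 buffer with 1 mM DTT, compound at 1% DMSO final; enzyme starts the reaction, 60 min at RT.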

RON (human) = RON (human) (Homo sapiens, UniProt Q04912); assay: RON (human) AlphaScreen kinase assay, Km of ATP; format: biochemical; conditions: AlphaScreen, Km of ATP; read-out: RON biochemical IC50
Chain of RON (human) (Q04912 25-1400): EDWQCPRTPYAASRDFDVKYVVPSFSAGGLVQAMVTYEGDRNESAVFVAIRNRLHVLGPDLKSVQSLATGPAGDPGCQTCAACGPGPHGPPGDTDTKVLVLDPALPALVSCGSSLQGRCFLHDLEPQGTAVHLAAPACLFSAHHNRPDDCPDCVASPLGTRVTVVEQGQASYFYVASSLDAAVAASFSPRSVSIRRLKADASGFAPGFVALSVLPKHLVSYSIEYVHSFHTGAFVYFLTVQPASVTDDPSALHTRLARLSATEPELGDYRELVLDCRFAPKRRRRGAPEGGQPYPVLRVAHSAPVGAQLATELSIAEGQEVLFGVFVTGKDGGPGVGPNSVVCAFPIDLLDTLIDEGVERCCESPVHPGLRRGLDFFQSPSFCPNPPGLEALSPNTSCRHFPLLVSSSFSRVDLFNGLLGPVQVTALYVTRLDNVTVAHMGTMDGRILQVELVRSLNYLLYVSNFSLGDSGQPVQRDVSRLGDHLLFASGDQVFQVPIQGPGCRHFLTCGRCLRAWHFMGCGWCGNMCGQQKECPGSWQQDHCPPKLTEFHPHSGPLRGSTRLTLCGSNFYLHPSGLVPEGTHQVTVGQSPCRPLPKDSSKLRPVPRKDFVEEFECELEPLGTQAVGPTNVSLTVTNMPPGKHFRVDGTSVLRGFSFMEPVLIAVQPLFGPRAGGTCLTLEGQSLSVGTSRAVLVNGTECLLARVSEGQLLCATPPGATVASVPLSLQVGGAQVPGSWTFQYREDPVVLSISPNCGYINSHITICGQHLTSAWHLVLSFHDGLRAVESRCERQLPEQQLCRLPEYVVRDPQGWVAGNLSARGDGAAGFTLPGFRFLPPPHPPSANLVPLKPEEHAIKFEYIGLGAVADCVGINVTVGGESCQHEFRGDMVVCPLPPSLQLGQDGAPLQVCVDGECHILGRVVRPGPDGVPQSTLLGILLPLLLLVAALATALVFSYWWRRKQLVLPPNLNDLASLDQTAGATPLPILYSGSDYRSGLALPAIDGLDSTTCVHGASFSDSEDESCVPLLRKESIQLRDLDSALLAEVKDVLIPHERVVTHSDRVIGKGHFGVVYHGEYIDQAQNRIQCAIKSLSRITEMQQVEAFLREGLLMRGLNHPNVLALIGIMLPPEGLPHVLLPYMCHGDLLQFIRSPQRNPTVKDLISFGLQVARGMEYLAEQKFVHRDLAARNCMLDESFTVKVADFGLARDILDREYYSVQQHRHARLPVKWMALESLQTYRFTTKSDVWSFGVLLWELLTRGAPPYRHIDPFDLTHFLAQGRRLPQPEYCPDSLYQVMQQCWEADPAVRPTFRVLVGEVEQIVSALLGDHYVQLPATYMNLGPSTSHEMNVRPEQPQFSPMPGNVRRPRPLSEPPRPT
Procedure, shortened: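 Reaction was started with enzyme and run 30 min at RT. PT66 donor/acceptor beads in an EDTA-containing Tris pH 7.5 buffer were then added, and the signal was read after 1 h.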

Chain of MET (human) (P08581 25-1390): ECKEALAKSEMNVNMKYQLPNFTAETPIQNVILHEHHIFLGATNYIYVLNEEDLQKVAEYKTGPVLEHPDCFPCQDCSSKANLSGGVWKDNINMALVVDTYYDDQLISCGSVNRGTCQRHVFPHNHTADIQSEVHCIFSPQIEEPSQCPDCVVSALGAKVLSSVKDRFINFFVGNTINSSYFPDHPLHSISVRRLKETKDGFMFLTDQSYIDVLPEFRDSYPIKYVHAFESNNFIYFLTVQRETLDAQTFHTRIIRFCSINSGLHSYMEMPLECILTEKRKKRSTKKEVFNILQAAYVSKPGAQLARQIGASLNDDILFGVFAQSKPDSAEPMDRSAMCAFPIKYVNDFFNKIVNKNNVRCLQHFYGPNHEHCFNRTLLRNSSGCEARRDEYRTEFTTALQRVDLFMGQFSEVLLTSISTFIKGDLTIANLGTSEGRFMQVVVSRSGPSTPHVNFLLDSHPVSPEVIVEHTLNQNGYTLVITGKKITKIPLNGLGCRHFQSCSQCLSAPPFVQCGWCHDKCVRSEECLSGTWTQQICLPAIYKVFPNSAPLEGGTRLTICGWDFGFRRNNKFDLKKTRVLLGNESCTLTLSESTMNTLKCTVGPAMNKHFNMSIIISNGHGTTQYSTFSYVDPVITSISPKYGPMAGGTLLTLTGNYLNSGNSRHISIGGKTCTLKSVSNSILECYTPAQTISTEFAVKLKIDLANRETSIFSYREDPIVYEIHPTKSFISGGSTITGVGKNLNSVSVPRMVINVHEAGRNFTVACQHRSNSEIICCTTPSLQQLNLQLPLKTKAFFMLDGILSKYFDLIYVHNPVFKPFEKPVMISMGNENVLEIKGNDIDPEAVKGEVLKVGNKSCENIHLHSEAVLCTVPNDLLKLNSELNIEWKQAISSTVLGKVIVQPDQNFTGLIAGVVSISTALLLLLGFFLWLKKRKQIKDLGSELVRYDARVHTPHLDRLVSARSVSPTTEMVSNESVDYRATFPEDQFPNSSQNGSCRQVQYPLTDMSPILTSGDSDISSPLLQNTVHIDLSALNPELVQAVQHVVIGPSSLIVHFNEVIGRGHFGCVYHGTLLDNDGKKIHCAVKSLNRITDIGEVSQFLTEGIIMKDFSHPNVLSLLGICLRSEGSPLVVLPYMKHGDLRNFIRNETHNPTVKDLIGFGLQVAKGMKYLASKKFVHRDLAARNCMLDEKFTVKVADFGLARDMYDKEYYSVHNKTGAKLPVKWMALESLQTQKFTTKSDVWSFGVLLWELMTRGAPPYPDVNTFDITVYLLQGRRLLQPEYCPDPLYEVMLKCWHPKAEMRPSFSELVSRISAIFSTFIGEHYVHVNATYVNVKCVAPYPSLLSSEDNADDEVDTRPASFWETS

Row | IC50 (MET (human)) [nM] | IC50 (RON (human)) [nM] | Compound
1 | 500 to 5000 | 500 to 5000 | CCS(=O)(=O)Nc1cccc(-c2coc3c(O[C@H](C)c4c(Cl)ccc(F)c4Cl)c(N)ncc23)c1 [Example 245, Ethanesulfonic acid (3-{6-amino-7-[(R)-1-(2,6-dichloro-3-fluorophenyl)ethoxy]-furo[3,2-c]pyridin-3-yl}phenyl)amide]
2 | < 500 | 500 to 5000 | C[C@@H](Oc1c(N)ncc2c(C3=CCN(CC(=O)N4CCC(O)C4)CC3)coc12)c1c(Cl)ccc(F)c1Cl (stereo partly drawn) [Example 203, 2-(4-{6-Amino-7-[(R)-1-(2,6-dichloro-3-fluorophenyl)ethoxy]-furo[3,2-e]pyridin-3-yl}-3,6-dihydro-2H-pyridin-1-yl)-1-(3-hydroxypyrrolidin-1-yl)ethanone]
3 | 500 to 5000 | 500 to 5000 | Cn1c(Cc2ccccc2)ncc(-c2ccc(COc3c(N)ncc4c(Br)coc34)c(F)c2)c1=O [Example 466, 5-[4-(6-Amino-3-bromofuro[3,2-c]pyridin-7-yloxymethyl)-3-fluorophenyl]-2-benzyl-3-methyl-3H-pyrimidin-4-one]
4 | < 500 | < 500 | C[C@@H](Oc1c(N)ncc2c(-c3ccc(C(=O)NCCN(C)C)cc3)coc12)c1c(Cl)ccc(F)c1Cl [Example 71, 4-{6-Amino-7-[(R)-1-(2,6-dichloro-3-fluorophenyl)ethoxy]-furo[3,2-c]pyridin-3-yl}-N-(2-dimethylaminoethyl)benzamide]
5 | < 500 | < 500 | CC(Cc1cccc(Br)c1)Oc1c(N)ncc2c(-c3cnn(C4CCNCC4)c3)coc12 (stereo not drawn) [Example 439, 7-[2-(3-Bromophenyl)-1-methylethoxy]-3-(1-piperidin-4-yl-1H-pyrazol-4-yl)furo[3,2-c]pyridin-6-ylamine]
6 | < 500 | 500 to 5000 | C[C@@H](Oc1c(N)ncc2c(C3=CCN(C(=O)CO)CC3)coc12)c1c(Cl)ccc(F)c1Cl [Example 142, 1-[4-{6-Amino-7-[(1R)-1-(2,6-dichloro-3-fluorophenyl)ethoxy]furo[3,2-c]pyridin-3-yl}-3,6-dihydropyridin-1(2H)-yl]-2-hydroxyethanone]
7 | 500 to 5000 | 500 to 5000 | C[C@@H](Oc1c(N)ncc2c(-c3ccc(C(=O)N4CCC(O)CC4)cc3)coc12)c1c(Cl)ccc(F)c1Cl [Example 296, (4-{6-Amino-7-[(R)-1-(2,6-dichloro-3-fluorophenyl)ethoxy]furo[3,2-c]pyridin-3-yl}phenyl)-(4-hydroxypiperidin-1-yl)methanone]
8 | 500 to 5000 | < 500 | C[C@@H](Oc1c(N)ncc2c(C3=CCCC(N)C3)coc12)c1c(Cl)ccc(F)c1Cl (stereo partly drawn) [Example 145, 3-(5-Aminocyclohex-1-enyl)-7-[(R)-1-(2,6-dichloro-3-fluoro-phenyl)ethoxy]furo[3,2-c]pyridin-6-ylamine]
9 | 500 to 5000 | 500 to 5000 | C[C@@H](Oc1c(N)ncc2c(-c3cnc(N)nc3)coc12)c1c(Cl)ccc(F)c1Cl [Example 113, 3-(2-Amino-pyrimidin-5-yl)-7-[(R)-1-(2,6-dichloro-3-fluorophenyl)ethoxy]furo[3,2-c]pyridin-6-ylamine]
